Reference: US10576085B2, “Substituted aminopurine compounds, compositions thereof, and methods of treatment therewith” (Signal Pharmaceuticals, LLC, priority 2016, dated 2020)

Test system: cancer cell lines of Table 2
Experiment: Multiplexed cytotoxicity assay: apoptosis (activated caspase-3; Cal_X2, Cal_X5, Max_Fold_Change)
Type: cell-based
Method: Cells are grown in RPMI1640, 10% FBS, 2 mM L-alanyl-L-Glutamine, 1 mM Na pyruvate or a special medium in a humidified atmosphere of 5% CO2 at 37° C. Cells are seeded into 384-well plates and incubated in a humidified atmosphere of 5% CO2 at 37° C. Compounds are added 24 h post cell seeding. At the same time, a time zero untreated cell plate is generated. After a 72 hour incubation period, cells are fixed and stained with fluorescently labeled antibodies and nuclear dye to allow visualization of nuclei, apoptotic cells and mitotic cells. Apoptotic cells are detected using an anti-active caspase-3 antibody. Mitotic cells are detected using an anti phospho-histone-3 antibody. Compounds are serially diluted 3.16-fold and assayed over 10 concentrations in a final assay concentration of 0.1% DMSO from the highest test concentration of 10 μM. Automated fluorescence microscopy was carried out using a Molecular Devices ImageXpress Micro XL high-content imager, and images are collected with a 4× objective.
The activated caspase-3 marker labels cells from early to late stage apoptosis. Concentrations of test compound that cause a 5-fold induction in the caspase-3 signal (Cal_X5) indicate significant apoptosis induction. The maximal induction of caspase 3 by compound in comparison with DMSO control is reported as Max_Fold_Change.
In Another Experiment, Cells were Grown in RPMI1640, 10% FBS, 2 mM L-alanyl-L-Glutamine, 1 mM Na pyruvate or a special medium in a humidified atmosphere of 5% CO2 at 37° C. Cells were seeded into 384-well plates and incubated in a humidified atmosphere of 5% CO2 at 37° C. Compounds were added 24 h post cell seeding. At the same time, a time zero untreated cell plate was generated. After a 72 hour incubation period, cells were fixed and stained with fluorescently labeled antibodies and nuclear dye to allow visualization of nuclei, apoptotic cells and mitotic cells. Apoptotic cells were detected using an anti-active caspase-3 antibody. Mitotic cells were detected using an anti phospho-histone-3 antibody. Compounds were serially diluted 3.16-fold and assayed over 10 concentrations in a final assay concentration of 0.1% DMSO from the highest test concentration of 10 μM. Automated fluorescence microscopy was carried out using a Molecular Devices ImageXpress Micro XL high-content imager, and images were collected with a 4× objective.
The activated caspase-3 marker labels cells from early to late stage apoptosis. Concentrations of test compound that cause a 2-fold (Cal-X2) or 5-fold induction in the caspase-3 signal (Cal_X5) indicated significant apoptosis induction. The maximal induction of caspase 3 by compound in comparison with DMSO control was reported as Max_Fold_Change.

C[C@]1(C(N)=O)CC[C@@H](n2c(Nc3c(Cl)cc(Cl)cc3Cl)nc3cnc(N[C@@H]4CCOC[C@H]4F)nc32)CC1 [Compound 1, cis-4-[2-{[(3S,4R)-3-fluorooxan-4-yl]amino}-8-(2,4,6-trichloroanilino)-9H-purin-9-yl]-1-methyl cyclohexane-1-carboxamide]
CalX2 (639V, Bladder): 0.0841 µM
CalX5 (639V, Bladder): 0.465 µM
Max fold change (639V, Bladder): 6.33
CalX2 (647V, Bladder): 2.7413 µM
CalX5 (647V, Bladder): 4.45 µM
Max fold change (647V, Bladder): 19.29
CalX2 (769P, Kidney): 0.2023 µM
CalX5 (769P, Kidney): 5.11 µM
Max fold change (769P, Kidney): 5.67
CalX2 (786O, Kidney): 10 µM
CalX5 (786O, Kidney): 10 µM
Max fold change (786O, Kidney): 0.83
CalX2 (A7, Skin, Melanoma): 5.0814 µM
CalX5 (A7, Skin, Melanoma): 9.4 µM
Max fold change (A7, Skin, Melanoma): 5.51
CalX2 (A101D, Skin, Melanoma): 0.4207 µM
CalX5 (A101D, Skin, Melanoma): 3.71 µM
Max fold change (A101D, Skin, Melanoma): 7.93
CalX2 (A375, Skin, Melanoma): 0.0673 µM
CalX5 (A375, Skin, Melanoma): 0.0827 µM
Max fold change (A375, Skin, Melanoma): 103.79
CalX2 (A498, Kidney): 0.5562 µM
CalX5 (A498, Kidney): 10 µM
Max fold change (A498, Kidney): 4.72
CalX2 (A704, Kidney): 10 µM
CalX5 (A704, Kidney): 10 µM
Max fold change (A704, Kidney): 0.96
CalX2 (A2058, Skin, Melanoma): 0.065 µM
CalX5 (A2058, Skin, Melanoma): 0.204 µM
Max fold change (A2058, Skin, Melanoma): 11.68
CalX2 (ACHN, Kidney): 0.78 µM
CalX5 (ACHN, Kidney): 10 µM
Max fold change (ACHN, Kidney): 2.97
CalX2 (AU565, Breast): 3.8749 µM
CalX5 (AU565, Breast): 7.14 µM
Max fold change (AU565, Breast): 14.18
CalX2 (BC1, Lymphoma): 5.1005 µM
CalX5 (BC1, Lymphoma): 6.54 µM
Max fold change (BC1, Lymphoma): 8.72
CalX2 (BCP1, Lymphoma): 4.8663 µM
CalX5 (BCP1, Lymphoma): 7.36 µM
Max fold change (BCP1, Lymphoma): 6.56
CalX2 (BFTC905, Bladder): 0.0179 µM
CalX5 (BFTC905, Bladder): 0.0414 µM
Max fold change (BFTC905, Bladder): 45.3
CalX2 (BT20, Breast): 10 µM
CalX5 (BT20, Breast): 10 µM
Max fold change (BT20, Breast): 1.81
CalX2 (BT474, Breast): 10 µM
CalX5 (BT474, Breast): 10 µM
Max fold change (BT474, Breast): 0.94
CalX2 (BV173, Leukemia): 0.4959 µM
CalX5 (BV173, Leukemia): 10 µM
Max fold change (BV173, Leukemia): 2.91
CalX2 (C32, Skin, Melanoma): 0.0451 µM
CalX5 (C32, Skin, Melanoma): 0.0778 µM
Max fold change (C32, Skin, Melanoma): 110.9
CalX2 (C32TG, Skin, Melanoma): 0.0608 µM
CalX5 (C32TG, Skin, Melanoma): 0.117 µM
Max fold change (C32TG, Skin, Melanoma): 42.82
CalX2 (CA46, Lymphoma): 3.2395 µM
CalX5 (CA46, Lymphoma): 8.08 µM
Max fold change (CA46, Lymphoma): 9.46
CalX2 (CAKI1, Kidney): 0.2015 µM
CalX5 (CAKI1, Kidney): 10 µM
Max fold change (CAKI1, Kidney): 4.12
CalX2 (CAKI2, Kidney): 0.1631 µM
CalX5 (CAKI2, Kidney): 0.449 µM
Max fold change (CAKI2, Kidney): 6.26
CalX2 (CCRFCEM, Leukemia): 3.4279 µM
CalX5 (CCRFCEM, Leukemia): 6.95 µM
Max fold change (CCRFCEM, Leukemia): 12.74
CalX2 (CEMC1, Leukemia): 4.1828 µM
CalX5 (CEMC1, Leukemia): 5.22 µM
Max fold change (CEMC1, Leukemia): 11.27
CalX2 (CHL1, Skin, Melanoma): 1.2376 µM
CalX5 (CHL1, Skin, Melanoma): 10 µM
Max fold change (CHL1, Skin, Melanoma): 3.46
CalX2 (CMLT1, Leukemia): 0.0948 µM
CalX5 (CMLT1, Leukemia): 10 µM
Max fold change (CMLT1, Leukemia): 4.85
CalX2 (COLO829, Skin, Melanoma): 0.0421 µM
CalX5 (COLO829, Skin, Melanoma): 0.125 µM
Max fold change (COLO829, Skin, Melanoma): 24.28
CalX2 (CROAP2, Lymphoma): 2.9603 µM
CalX5 (CROAP2, Lymphoma): 4.2 µM
Max fold change (CROAP2, Lymphoma): 50.79
CalX2 (D283MED, CNS, Medulloblastoma): 8.3456 µM
CalX5 (D283MED, CNS, Medulloblastoma): 10 µM
Max fold change (D283MED, CNS, Medulloblastoma): 2.23
CalX2 (D341MED, CNS, Medulloblastoma): 7.7855 µM
CalX5 (D341MED, CNS, Medulloblastoma): 10 µM
Max fold change (D341MED, CNS, Medulloblastoma): 2.14
CalX2 (DAOY, CNS, Medulloblastoma): 3.2773 µM
CalX5 (DAOY, CNS, Medulloblastoma): 5.22 µM
Max fold change (DAOY, CNS, Medulloblastoma): 16.68
CalX2 (DAUDI, Lymphoma): 3.9392 µM
CalX5 (DAUDI, Lymphoma): 5.33 µM
Max fold change (DAUDI, Lymphoma): 10.08
CalX2 (DB, Lymphoma): 6.1153 µM
CalX5 (DB, Lymphoma): 6.5 µM
Max fold change (DB, Lymphoma): 7.11
CalX2 (DOHH2, Lymphoma): 2.4833 µM
CalX5 (DOHH2, Lymphoma): 3.99 µM
Max fold change (DOHH2, Lymphoma): 20.41
CalX2 (EB2, Lymphoma): 5.7381 µM
CalX5 (EB2, Lymphoma): 10 µM
Max fold change (EB2, Lymphoma): 4.16
CalX2 (EB3, Lymphoma): 6.1469 µM
CalX5 (EB3, Lymphoma): 7.66 µM
Max fold change (EB3, Lymphoma): 5.5
CalX2 (EM2, Leukemia): 10 µM
CalX5 (EM2, Leukemia): 10 µM
Max fold change (EM2, Leukemia): 1.55
CalX2 (G361, Skin, Melanoma): 0.0428 µM
CalX5 (G361, Skin, Melanoma): 0.12 µM
Max fold change (G361, Skin, Melanoma): 24.48
CalX2 (G401, Kidney): 0.0717 µM
CalX5 (G401, Kidney): 0.179 µM
Max fold change (G401, Kidney): 30.87
CalX2 (G402, Kidney): 0.0162 µM
CalX5 (G402, Kidney): 0.637 µM
Max fold change (G402, Kidney): 7.34
CalX2 (GA10, Lymphoma): 0.6477 µM
CalX5 (GA10, Lymphoma): 1.94 µM
Max fold change (GA10, Lymphoma): 6.49
CalX2 (H9, Lymphoma): 0.0222 µM
CalX5 (H9, Lymphoma): 0.4 µM
Max fold change (H9, Lymphoma): 7.33
CalX2 (HEL9217, Leukemia): 3.2991 µM
CalX5 (HEL9217, Leukemia): 6.57 µM
Max fold change (HEL9217, Leukemia): 6.23
CalX2 (HEPG2, Liver): 0.0041 µM
CalX5 (HEPG2, Liver): 0.0108 µM
Max fold change (HEPG2, Liver): 62.47
CalX2 (HLE, Liver): 0.8174 µM
CalX5 (HLE, Liver): 10 µM
Max fold change (HLE, Liver): 2.5
CalX2 (HLF, Liver): 10 µM
CalX5 (HLF, Liver): 10 µM
Max fold change (HLF, Liver): 1.95
CalX2 (HMCB, Skin, Melanoma): 10 µM
CalX5 (HMCB, Skin, Melanoma): 10 µM
Max fold change (HMCB, Skin, Melanoma): 1.8
CalX2 (HS294T, Skin, Melanoma): 0.154 µM
CalX5 (HS294T, Skin, Melanoma): 2.15 µM
Max fold change (HS294T, Skin, Melanoma): 5.74
CalX2 (HS445, Lymphoma): 4.9128 µM
CalX5 (HS445, Lymphoma): 7.7 µM
Max fold change (HS445, Lymphoma): 5.65
